Assay [1] concerns the target Inhibitor of nuclear factor kappa-B kinase subunit epsilon (Homo sapiens) (UniProt Q14164). Nature of the assay: Inhibition of human IKK-epsilon assessed as percent of control at 2000 nM by KINOMEscan assay relative to control. Details: scale not given: the % may be the effect or the level left.
Assay [2] addresses Phosphatidylinositol 4,5-bisphosphate 3-kinase catalytic subunit alpha isoform (Homo sapiens) (UniProt P42336). As to the kind of experiment: Inhibition of human PIK3CA assessed as percent of control at 2000 nM by KINOMEscan assay relative to control. Further details: scale not given: the % may be the effect or the level left.
Assay [3] has as its target Serine/threonine-protein kinase LATS1 (Homo sapiens) (UniProt O95835). Nature of the assay: Inhibition of human LATS1 assessed as percent of control at 2000 nM by KINOMEscan assay relative to control. Details: scale not given: the % may be the effect or the level left.
Assay [4] deals with Serine/threonine-protein kinase Nek5 (Homo sapiens) (UniProt Q6P3R8). As to the kind of experiment: Inhibition of human NEK5 assessed as percent of control at 2000 nM by KINOMEscan assay relative to control. Further details: scale not given: the % may be the effect or the level left.
Assay [5] addresses Mitogen-activated protein kinase kinase kinase 11 (Homo sapiens) (UniProt Q16584). Nature of the assay: Inhibition of human MLK3 assessed as percent of control at 2000 nM by KINOMEscan assay relative to control. Further details: scale not given: the % may be the effect or the level left.
The target in assay [6] is Serine/threonine-protein kinase mTOR (Homo sapiens) (UniProt P42345). As to the kind of experiment: Inhibition of human MTOR assessed as percent of control at 2000 nM by KINOMEscan assay relative to control. Details: scale not given: the % may be the effect or the level left.
The target of assay [7] is RAC-alpha serine/threonine-protein kinase (Homo sapiens) (UniProt P31749). As to the kind of experiment: Inhibition of human AKT1 assessed as percent of control at 2000 nM by KINOMEscan assay relative to control. Details: scale not given: the % may be the effect or the level left.
Assay [8] concerns the target Mitogen-activated protein kinase kinase kinase 6 (Homo sapiens) (UniProt O95382). Nature of the assay: Inhibition of human ASK2 assessed as percent of control at 2000 nM by KINOMEscan assay relative to control. Further details: scale not given: the % may be the effect or the level left.
Assay [9] deals with Non-receptor tyrosine-protein kinase TYK2 (Homo sapiens) (UniProt P29597). As to the kind of experiment: Inhibition of human TYK2 JH2 pseudokinase domain assessed as percent of control at 2000 nM by KINOMEscan assay relative to control. Further details: scale not given: the % may be the effect or the level left.
Assay [10] addresses Mitogen-activated protein kinase 11 (Homo sapiens) (UniProt Q15759). Nature of the assay: Inhibition of human p38-beta assessed as percent of control at 2000 nM by KINOMEscan assay relative to control. Further details: scale not given: the % may be the effect or the level left.
In the next assay the test system is Myc-CaP. As to the kind of experiment: Antitumor activity against murine castration-resistant Myc-CaP cells xenografted in male FVB mouse assessed as suppression of tumor volume. In kind it is functional.
The target in assay [11] is Death-associated protein kinase 3 (Homo sapiens) (UniProt O43293). As to the kind of experiment: Inhibition of human DAPK3 assessed as percent of control at 2000 nM by KINOMEscan assay relative to control. Further details: scale not given: the % may be the effect or the level left.
Chain of Death-associated protein kinase 3 (Homo sapiens) (O43293 whole entry, looked up, canonical isoform): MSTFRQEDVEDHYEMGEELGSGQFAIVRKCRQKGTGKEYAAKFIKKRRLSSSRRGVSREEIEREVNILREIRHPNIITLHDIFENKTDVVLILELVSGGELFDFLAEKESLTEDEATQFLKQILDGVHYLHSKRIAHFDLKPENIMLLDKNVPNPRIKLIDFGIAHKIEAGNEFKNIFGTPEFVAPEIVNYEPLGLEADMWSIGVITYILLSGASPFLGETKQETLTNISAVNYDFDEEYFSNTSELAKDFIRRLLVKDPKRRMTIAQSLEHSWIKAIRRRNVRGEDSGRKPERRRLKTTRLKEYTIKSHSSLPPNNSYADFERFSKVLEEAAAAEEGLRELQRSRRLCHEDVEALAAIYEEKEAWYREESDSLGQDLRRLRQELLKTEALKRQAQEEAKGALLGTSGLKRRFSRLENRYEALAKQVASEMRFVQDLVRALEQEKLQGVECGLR
The target in assay [12] is Casein kinase I isoform alpha (Homo sapiens) (UniProt P48729). As to the kind of experiment: Inhibition of human CSNK1A1 assessed as percent of control at 2000 nM by KINOMEscan assay relative to control. Further details: scale not given: the % may be the effect or the level left. Particulars: INHIBITOR
Chain of Casein kinase I isoform alpha (Homo sapiens) (P48729 2-337 limits assumed): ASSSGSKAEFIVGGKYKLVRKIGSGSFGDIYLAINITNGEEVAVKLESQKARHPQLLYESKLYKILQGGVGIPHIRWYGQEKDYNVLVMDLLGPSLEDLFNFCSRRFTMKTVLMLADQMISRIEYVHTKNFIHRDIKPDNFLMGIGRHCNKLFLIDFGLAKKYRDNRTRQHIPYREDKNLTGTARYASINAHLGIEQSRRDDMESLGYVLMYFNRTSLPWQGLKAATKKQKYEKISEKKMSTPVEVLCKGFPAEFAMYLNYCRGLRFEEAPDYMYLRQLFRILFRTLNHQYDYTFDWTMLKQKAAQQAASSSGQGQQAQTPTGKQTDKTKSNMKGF
Assay [13] deals with Serine/threonine-protein kinase RIO2 (Homo sapiens) (UniProt Q9BVS4). Particulars: INHIBITOR, dose 2000.0 nM.
Description: Inhibition of human RIOK2 at 2000 nM by KINOMEscan assay
Assay [14] has as its target Calcium/calmodulin-dependent protein kinase type II subunit gamma (Homo sapiens) (UniProt Q13555). Nature of the assay: Inhibition of human CAMK2G assessed as percent of control at 2000 nM by KINOMEscan assay relative to control. Further details: scale not given: the % may be the effect or the level left.
Assay [15] addresses Activin receptor type-2B (Homo sapiens) (UniProt Q13705). Nature of the assay: Inhibition of human ACVR2B assessed as percent of control at 2000 nM by KINOMEscan assay relative to control. Details: scale not given: the % may be the effect or the level left.
The test system of assay [16] is Tyrosine-protein kinase ABL1 (Homo sapiens), P00519 [F317L]. As to the kind of experiment: Inhibition of phosphorylated human ABL1 F317L mutant assessed as percent of control at 2000 nM by KINOMEscan assay relative to control. Further details: scale not given: the % may be the effect or the level left.
Chain of Tyrosine-protein kinase ABL1 (Homo sapiens), P00519 [F317L] (P00519 whole entry F317L): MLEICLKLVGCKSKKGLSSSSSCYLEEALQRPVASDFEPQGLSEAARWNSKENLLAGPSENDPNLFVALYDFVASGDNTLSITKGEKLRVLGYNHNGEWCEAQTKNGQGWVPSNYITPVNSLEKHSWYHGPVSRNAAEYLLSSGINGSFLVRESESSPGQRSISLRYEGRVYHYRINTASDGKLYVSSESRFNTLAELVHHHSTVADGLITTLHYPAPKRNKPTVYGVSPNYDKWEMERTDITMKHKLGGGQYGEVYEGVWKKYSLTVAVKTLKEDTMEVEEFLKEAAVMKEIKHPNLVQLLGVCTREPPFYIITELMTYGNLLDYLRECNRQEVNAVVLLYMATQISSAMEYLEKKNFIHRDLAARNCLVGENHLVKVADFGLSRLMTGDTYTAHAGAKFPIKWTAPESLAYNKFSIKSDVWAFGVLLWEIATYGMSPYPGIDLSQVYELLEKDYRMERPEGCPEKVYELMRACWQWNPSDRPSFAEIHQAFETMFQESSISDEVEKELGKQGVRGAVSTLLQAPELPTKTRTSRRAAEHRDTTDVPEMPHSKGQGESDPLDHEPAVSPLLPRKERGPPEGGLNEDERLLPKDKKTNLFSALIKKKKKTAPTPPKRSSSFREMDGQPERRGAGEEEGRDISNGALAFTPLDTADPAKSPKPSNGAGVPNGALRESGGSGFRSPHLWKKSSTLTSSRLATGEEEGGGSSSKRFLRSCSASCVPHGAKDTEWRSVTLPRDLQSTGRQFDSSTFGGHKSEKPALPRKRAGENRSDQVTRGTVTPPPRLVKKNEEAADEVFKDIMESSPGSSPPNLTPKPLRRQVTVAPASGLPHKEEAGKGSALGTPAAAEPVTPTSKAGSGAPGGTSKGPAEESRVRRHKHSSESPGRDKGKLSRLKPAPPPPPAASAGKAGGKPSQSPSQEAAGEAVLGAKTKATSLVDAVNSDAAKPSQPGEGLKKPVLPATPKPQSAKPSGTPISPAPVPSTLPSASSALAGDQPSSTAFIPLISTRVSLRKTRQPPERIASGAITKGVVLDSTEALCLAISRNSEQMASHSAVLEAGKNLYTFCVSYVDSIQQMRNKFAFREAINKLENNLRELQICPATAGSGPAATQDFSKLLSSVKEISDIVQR
For assay [17], the target named is Cyclin-dependent kinase 8 (Homo sapiens) (UniProt P49336). Nature of the assay: Inhibition of human CDK8 assessed as percent of control at 2000 nM by KINOMEscan assay relative to control. Details: scale not given: the % may be the effect or the level left. Particulars: INHIBITOR
Chain of Cyclin-dependent kinase 8 (Homo sapiens) (P49336 whole entry): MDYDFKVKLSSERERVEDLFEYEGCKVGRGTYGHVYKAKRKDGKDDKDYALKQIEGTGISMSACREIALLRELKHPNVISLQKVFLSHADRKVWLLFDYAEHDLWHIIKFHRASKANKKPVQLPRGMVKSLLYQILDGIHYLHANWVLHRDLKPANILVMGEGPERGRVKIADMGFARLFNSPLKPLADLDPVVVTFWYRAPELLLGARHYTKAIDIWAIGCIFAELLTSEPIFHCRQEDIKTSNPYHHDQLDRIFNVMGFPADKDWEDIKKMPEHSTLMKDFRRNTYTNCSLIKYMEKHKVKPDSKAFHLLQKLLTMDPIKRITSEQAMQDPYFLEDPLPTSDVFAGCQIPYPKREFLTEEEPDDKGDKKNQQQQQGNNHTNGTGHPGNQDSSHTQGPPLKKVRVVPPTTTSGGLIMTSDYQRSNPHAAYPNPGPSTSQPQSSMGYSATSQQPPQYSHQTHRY
Assay [18] addresses Fibroblast growth factor receptor 1 (Homo sapiens) (UniProt P11362). Nature of the assay: Inhibition of human FGFR1 assessed as percent of control at 2000 nM by KINOMEscan assay relative to control. Further details: scale not given: the % may be the effect or the level left.
Assay [19] concerns the target Tyrosine-protein kinase BTK (Homo sapiens) (UniProt Q06187). As to the kind of experiment: Inhibition of human BTK assessed as percent of control at 2000 nM by KINOMEscan assay relative to control. Further details: scale not given: the % may be the effect or the level left.
In assay [20] the target is Activated CDC42 kinase 1 (Homo sapiens) (UniProt Q07912). As to the kind of experiment: Inhibition of human TNK2 assessed as percent of control at 2000 nM by KINOMEscan assay relative to control. Further details: scale not given: the % may be the effect or the level left.
The target in assay [21] is Serine/threonine-protein kinase 36 (Homo sapiens) (UniProt Q9NRP7). As to the kind of experiment: Inhibition of human STK36 assessed as percent of control at 2000 nM by KINOMEscan assay relative to control. Details: scale not given: the % may be the effect or the level left.
Assay [22] addresses Dual specificity protein kinase CLK3 (Homo sapiens) (UniProt P49761). As to the kind of experiment: Inhibition of human CLK3 assessed as percent of control at 2000 nM by KINOMEscan assay relative to control. Details: scale not given: the % may be the effect or the level left.
The target in assay [23] is Proto-oncogene tyrosine-protein kinase receptor Ret (Homo sapiens) (UniProt P07949). Nature of the assay: Inhibition of human RET assessed as percent of control at 2000 nM by KINOMEscan assay relative to control. Further details: scale not given: the % may be the effect or the level left.

Several values for one entry are separate records, joined by “and”; a condition that tells them apart may be missing. Identical values can stand only once. Activity calls are given as the source filed them. No cut-off for these calls is given here.

The values below come from ChEMBL document CHEMBL4804286, “3-amino-4-(4-(4 (dimethylcarbamoyl) phenyl)-1,4-diazepan-1-yl) thieno [2,3-b] pyridine-2-carboxamide for use in cancer therapy and formulations comprising the same” (2020).

Chain of Mitogen-activated protein kinase kinase kinase 6 (Homo sapiens) (O95382 whole entry, the tested form may be a part): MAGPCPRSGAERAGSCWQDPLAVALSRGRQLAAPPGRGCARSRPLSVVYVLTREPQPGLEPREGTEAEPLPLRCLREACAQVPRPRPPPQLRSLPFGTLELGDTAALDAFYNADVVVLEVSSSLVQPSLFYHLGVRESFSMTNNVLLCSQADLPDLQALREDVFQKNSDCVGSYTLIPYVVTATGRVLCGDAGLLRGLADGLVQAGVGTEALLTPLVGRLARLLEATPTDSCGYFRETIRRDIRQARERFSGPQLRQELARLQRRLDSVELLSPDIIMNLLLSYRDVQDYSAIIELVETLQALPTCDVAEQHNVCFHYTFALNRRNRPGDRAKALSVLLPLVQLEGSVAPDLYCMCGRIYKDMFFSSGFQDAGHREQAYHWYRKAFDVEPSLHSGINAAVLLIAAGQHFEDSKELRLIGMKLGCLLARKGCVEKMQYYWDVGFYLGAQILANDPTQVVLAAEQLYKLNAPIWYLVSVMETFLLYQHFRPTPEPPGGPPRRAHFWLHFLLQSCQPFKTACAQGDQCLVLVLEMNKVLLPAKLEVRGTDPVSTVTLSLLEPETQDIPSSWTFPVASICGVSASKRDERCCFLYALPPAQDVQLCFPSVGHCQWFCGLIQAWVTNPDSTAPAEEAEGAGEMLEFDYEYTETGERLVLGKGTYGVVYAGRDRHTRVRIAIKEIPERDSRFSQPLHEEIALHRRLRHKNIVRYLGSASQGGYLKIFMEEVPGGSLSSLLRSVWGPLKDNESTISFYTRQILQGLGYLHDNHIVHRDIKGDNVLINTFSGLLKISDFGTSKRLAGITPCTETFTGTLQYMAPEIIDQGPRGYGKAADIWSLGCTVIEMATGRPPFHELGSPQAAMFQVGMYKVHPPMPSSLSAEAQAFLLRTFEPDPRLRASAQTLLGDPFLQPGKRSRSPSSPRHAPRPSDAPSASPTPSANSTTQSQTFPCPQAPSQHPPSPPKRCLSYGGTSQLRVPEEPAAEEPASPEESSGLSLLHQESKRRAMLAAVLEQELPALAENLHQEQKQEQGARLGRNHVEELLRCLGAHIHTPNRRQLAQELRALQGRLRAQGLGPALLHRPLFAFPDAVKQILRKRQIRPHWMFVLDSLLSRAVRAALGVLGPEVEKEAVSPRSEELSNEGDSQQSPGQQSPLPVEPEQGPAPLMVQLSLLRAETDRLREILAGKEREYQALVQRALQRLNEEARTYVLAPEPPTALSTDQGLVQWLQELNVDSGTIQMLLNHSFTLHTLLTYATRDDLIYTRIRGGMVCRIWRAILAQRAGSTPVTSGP
Chain of Dual specificity protein kinase CLK3 (Homo sapiens) (P49761 whole entry, looked up): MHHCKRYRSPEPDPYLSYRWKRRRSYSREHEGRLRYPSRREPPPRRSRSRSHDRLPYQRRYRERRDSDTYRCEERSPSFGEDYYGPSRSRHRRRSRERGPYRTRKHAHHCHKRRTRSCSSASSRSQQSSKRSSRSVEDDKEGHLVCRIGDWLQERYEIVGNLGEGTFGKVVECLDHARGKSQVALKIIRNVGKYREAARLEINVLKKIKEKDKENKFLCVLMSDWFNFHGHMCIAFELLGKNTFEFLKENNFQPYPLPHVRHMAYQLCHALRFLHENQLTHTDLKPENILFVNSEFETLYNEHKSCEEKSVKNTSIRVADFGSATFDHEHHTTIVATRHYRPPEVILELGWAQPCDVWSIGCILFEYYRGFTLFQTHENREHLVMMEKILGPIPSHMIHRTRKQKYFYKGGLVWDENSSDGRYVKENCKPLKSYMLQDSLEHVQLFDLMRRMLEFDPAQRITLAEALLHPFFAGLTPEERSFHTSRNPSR
Chain of Activin receptor type-2B (Homo sapiens) (Q13705 whole entry): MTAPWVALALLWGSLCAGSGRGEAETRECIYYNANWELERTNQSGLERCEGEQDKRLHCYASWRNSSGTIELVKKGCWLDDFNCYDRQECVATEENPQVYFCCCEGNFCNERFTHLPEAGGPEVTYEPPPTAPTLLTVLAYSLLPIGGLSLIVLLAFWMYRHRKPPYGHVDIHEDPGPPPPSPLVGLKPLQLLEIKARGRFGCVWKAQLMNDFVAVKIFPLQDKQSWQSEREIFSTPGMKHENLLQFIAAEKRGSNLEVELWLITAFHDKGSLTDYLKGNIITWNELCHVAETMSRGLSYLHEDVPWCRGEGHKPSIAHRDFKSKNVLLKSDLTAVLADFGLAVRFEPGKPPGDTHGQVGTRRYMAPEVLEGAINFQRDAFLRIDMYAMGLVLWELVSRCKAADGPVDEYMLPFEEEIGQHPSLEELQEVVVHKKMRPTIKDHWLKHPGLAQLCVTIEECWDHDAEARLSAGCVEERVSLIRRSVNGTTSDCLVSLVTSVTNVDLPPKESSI
Chain of Mitogen-activated protein kinase 11 (Homo sapiens) (Q15759 whole entry): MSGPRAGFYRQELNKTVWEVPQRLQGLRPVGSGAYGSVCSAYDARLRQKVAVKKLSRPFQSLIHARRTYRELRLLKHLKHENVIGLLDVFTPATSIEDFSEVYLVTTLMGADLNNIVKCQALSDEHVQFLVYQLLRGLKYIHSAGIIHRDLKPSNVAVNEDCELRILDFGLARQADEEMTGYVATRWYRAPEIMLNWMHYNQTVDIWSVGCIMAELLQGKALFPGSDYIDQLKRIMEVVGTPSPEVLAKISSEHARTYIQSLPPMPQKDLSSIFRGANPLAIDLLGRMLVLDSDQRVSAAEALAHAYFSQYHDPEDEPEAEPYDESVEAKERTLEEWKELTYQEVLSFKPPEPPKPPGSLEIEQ

By inhibition is commonly meant how much of the control response was suppressed. On to `CN(C)C(=O)c1ccc(N2CCCN(c3ccnc4sc(C(N)=O)c(N)c34)CC2)cc1`, for which the Activity in assay [1] was 100%; in [2], 100% and 79%; in [3], 89% and 97%; in assay [4], 94% and 100%; in assay [5] it was 99% and 100%; in assay [6], 88% and 97%. The Activity was 100% in [7]; 90% and 88% in [8]; 73% and 59% in assay [9]; 100% and 97% in [10]; 81% and 83% in assay [11]; 33% and 12% in assay [12]. The Activity in [14] is 100%; in [15] it was 100% and 86%; in [16], 97% and 82%; in assay [17], 2.6% and 0.25%; in assay [18], 98% and 92%; in assay [19] it was 81% and 77%. Further, the Activity in [20] was 100%; in assay [21], 100%; in assay [22], 100% and 95%; in assay [23], 93% and 86%. The outcome in the assay on Myc-CaP was Active. The molecule also gave an inhibition in [13] of over 65%.
